In patent US11318157B2, “6-6 bicyclic aromatic ring substituted nucleoside analogues for use as PRMT5 inhibitors” (Janssen Pharmaceutica NV, priority 2015, dated 2022):
Like-named read-outs stand apart in the source and are kept apart here.

How the values were obtained:
[1] = tested on: nuclear symmetric Arginine dimethylation in A549 cells; test: PD assay (assay 2): inhibition of nuclear symmetric Arginine dimethylation (SYM10 immunohistochemistry), 48 h; format: cell-based; settings: Homo sapiens
Procedure: Experimental Procedure PD Assay (Assay 2)
A549 cells (ATCC, Cat #CCL-185) were cultured in Dulbecco's Modified Eagle's Medium (DMEM) (Sigma, Cat #D5796), supplemented with 10% Fetal Calf Serum (FCS) (HyClone™, Cat #SV30160.03), 100 mM Sodium Pyruvate (Sigma, Cat #S8636), 200 mM L-Glutamine (Sigma, Cat #G7513) and 50 mg/mL gentamycin (Gibco, Cat #15750-037).
Reagents used for buffers were purchased: Dulbecco's phosphate buffered saline (DPBS) without Ca/Mg (Sigma, Cat #D8537), phosphate buffered saline (PBS) 10× (Roche, Cat #11 666 789 001), Formalin solution 10% (Sigma, HT50-1-128-4L), Methanol 100% (Sigma, Cat #32213-2.5L), Triton X-100 (Acros, Cat #215680010), Bovine Serum Albumin (BSA) (Sigma, Cat #A2153), Alexa fluor 488 goat anti-rabbit antibody (Life Technologies, Cat #A11034), HCS CellMask Deep Red Stain (Life Technologies, Cat #H32721), Hoechst Stain (Life Technologies, Cat #33258), Anti-dimethyl-Arginine, sym (SYM10) antibody (Millipore, 07-412).
Immunohistochemistry Procedure
Cells were plated at 400 cells/40 μL/well in 384 well black μplates clear bottom (Perkin Elmer) and overnight incubated at 37° C., 5% CO2. […] 80 nL of the respective dilution of the compounds was added using the Labcyte POD 810 (Labcyte) reaching a final DMSO concentration of 0.2% in cell culture. After an incubation period of 48 h at 37° C. and 5% CO2, cells were fixed in 10% formalin solution for 15 min at room temperature and 20 min in ice-cold methanol, after which they were washed 3× in DPBS. Subsequently, the cells were blocked for 1 h in blocking buffer (PBS+1% BSA and 0.5% Triton X-100) and incubated overnight at 4° C. with the SYM10 antibody diluted 1/2000 in blocking buffer. The cells were washed 3× with washing buffer (PBS+0.1% Triton X-100) and incubated with the Alexa fluor 488 goat anti-rabbit antibody diluted 1/200 in blocking buffer for 1 h at room temperature. Subsequently, they were washed 3× with washing buffer and incubated for 30 min at room temperature with PBS containing a 1/5000 dilution of Hoechst Stain and a 1/5000 dilution of the HCS CellMask Deep Red Stain. After a final wash with PBS, the plates were imaged using the 10×W lens of the Opera® system (Perkin Elmer Life Sciences) using following settings (values in nm):
In the above equations, the following variable names are used: […]
In the above equations, the following controls were used for normalization: […]
Low control: minimum level of symmetrically dimethylated Arginines (cells treated with reference compound at 10 μM).
High control: maximum level of symmetrically dimethylated Arginines (DMSO treated cells).
IC50 and pIC50 (−log IC50) values were calculated using the appropriate software.
The pIC50 values in the Table below are averaged values (Co. No. means compound number; n.d. means not determined).

[2] = molecular target: T1, PRMT5-MEP50 enzyme (Homo sapiens, UniProt O14744); test: In vitro assay 1b: high throughput mass spectrometer assay of SAH formation, 1.25 nM enzyme, 120 min; format: biochemical; settings: averaged values; PRMT5-MEP50, 1.25 nM enzyme, 120 min; read-out: pIC50 Assay 1b (converted)
T1 construct: One virus expresses full length human PRMT5 with Flag-tag at N-terminus; Flag (N); purchased Charles River (Argenta); host or cells: insect cells (Sf9), baculovirus co-infection
T1 sequence (O14744 whole entry): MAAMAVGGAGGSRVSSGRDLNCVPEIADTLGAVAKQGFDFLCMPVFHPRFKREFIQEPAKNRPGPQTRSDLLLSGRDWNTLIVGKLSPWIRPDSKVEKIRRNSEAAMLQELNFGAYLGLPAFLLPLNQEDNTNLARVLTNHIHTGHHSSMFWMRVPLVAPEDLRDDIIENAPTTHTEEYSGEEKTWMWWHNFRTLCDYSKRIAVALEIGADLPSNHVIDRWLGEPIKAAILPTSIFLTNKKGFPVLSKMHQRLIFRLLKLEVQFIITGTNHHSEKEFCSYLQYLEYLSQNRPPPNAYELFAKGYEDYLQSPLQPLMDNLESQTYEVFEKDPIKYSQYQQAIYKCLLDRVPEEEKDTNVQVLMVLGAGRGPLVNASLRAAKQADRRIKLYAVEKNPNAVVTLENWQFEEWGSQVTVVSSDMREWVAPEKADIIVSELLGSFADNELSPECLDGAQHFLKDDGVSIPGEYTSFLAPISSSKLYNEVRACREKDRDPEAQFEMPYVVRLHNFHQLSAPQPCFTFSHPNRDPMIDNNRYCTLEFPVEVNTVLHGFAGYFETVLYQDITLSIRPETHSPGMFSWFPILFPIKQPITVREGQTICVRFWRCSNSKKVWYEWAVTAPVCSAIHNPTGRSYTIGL
T1 sequence (Q9BQA1 whole entry partner): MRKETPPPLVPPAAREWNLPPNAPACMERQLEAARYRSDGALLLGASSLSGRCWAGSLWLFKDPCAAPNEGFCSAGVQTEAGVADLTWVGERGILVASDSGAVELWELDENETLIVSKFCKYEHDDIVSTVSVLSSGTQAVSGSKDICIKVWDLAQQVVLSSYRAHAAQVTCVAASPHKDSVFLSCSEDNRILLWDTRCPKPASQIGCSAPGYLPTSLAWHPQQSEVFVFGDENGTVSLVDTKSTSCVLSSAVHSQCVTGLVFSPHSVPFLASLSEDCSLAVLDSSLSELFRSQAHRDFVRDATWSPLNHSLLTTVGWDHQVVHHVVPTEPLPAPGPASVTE
Source text: (§1) Experimental Procedures In Vitro Assay (Assay 1a and 1b)
(§2) PRMT5-MEP50 enzyme was purchased from Charles River (Argenta). The enzyme complex was produced in insect cells (Sf9) infected simultaneously with two baculoviruses. One virus expresses full length human PRMT5 with Flag-tag at N-terminus, the second virus expresses full length MEP50 with His6-TEV cleavage at N-terminus. The protein was affinity purified using anti-Flag (M2) beads eluted with 3×FLAG peptide, followed by His-Select eluted with 0.5M imidazole. Eluted protein was then dialysed against tris-buffered saline (TBS) (pH 8.0) containing 20% glycerol and 3 mM dithiothreitol (DTT).
(§3) Full-length untagged human recombinant histone H2A (residues 1-130, Genbank Accession #NM_021052 MW=14.1 kDa) expressed in E. coli was purchased from Reaction Biology Corporation, Cat #HMT-11-146. Reagents used for making reaction buffer or stopping reaction were purchased including Tris base (Sigma Cat #T-1503), NaCl (Sigma Cat #RGF-3270), MgCl2 (Sigma Cat #M0250), DTTI (Invitrogen Cat #15508-013) and Formic Acid (Riedel deHaen, Cat #33015)
(§4) High Throughput Mass Spectrometer Assay
(§5) PRMT5 catalyzes the sequential methylations of the terminal nitrogen atoms on the guanidine groups of arginine residues within proteins using co-substrate S-adenosyl-L-methionine (AdoMet, SAM), forming mono-methyl (MMA), symmetric-dimethyl arginine (sDMA) and S-adenosyl-L-homocysteine (AdoHcy, SAH). The enzyme activity was determined by following the product SAH formation using high throughput mass spectrometry (Agilent Rapidfire 300 System coupled to a Sciex 4000 series QTrap® triple-quad MS/MS). The reaction buffer was 20 mM Tris-HCl, pH 8.5, 50 mM NaCl, 5 mM MgCl2 and 1 mM DTT. The reaction activity was stopped using 1% formic acid (final concentration).
(§6) The IC50 Studies were performed using eleven point dosing series made for each compound by serially diluted 1:2 in dimethyl sulfoxide (DMSO), with point 12 being a DMSO control. Compounds were first spotted to plates, and followed by addition of 2 μM SAM and 0.6 μM H2A (histone H2A) solution mixture. The same volume of enzyme solution was added to initiate the enzymatic reactions. The final concentrations of the reaction are at 1 μM SAM, 0.3 μM H2A and 10 nM enzyme (assay 1a) or 1.25 nM enzyme (assay 1b). The reaction was incubated at 30° C. for 60 minutes (min) when 10 nM enzyme was used and for 120 min when 1.25 nM enzyme was used. Subsequently, the reaction was quenched by addition of formic acid to a final concentration of 1%. The inhibitions of SAH formation in the presence of compounds were calculated as a percentage of the control relative to the uninhibited reaction as a function of inhibitor concentration. The data were fit as follows: Y=Bottom+(Top−Bottom)/(1+10^((log IC50−X)*h))
(§7) where IC50 is the inhibitor concentration (same unit as X) at 50% inhibition and h is the Hill slope. Y is percent of inhibition, X is log of compound concentration. Bottom and Top are the plateaus in same units as Y.

[3] = molecular target: T1, PRMT5-MEP50 enzyme; test: In vitro assay 1a: high throughput mass spectrometer assay of SAH formation, 10 nM enzyme, 60 min; format: biochemical; settings: averaged values, PRMT5-MEP50, 10 nM enzyme, read-out: pIC50 Assay 1a (converted)
Source text: as §1, §2, §3, §4, §5, §6, §7

[4] = A549, averaged values, PD assay, A549 cells, symmetric Arginine dimethylation, read-out: pIC50 Assay 2 (converted)

| SMILES | IC50 [1, 4] [nM] | IC50 [2] [nM] | IC50 [3] [nM] | IC50 ([1]; A549, read-out: pIC50 Assay 2 (converted)) [nM] |
| --- | --- | --- | --- | --- |
| C=Cc1ncnc2c1ccn2[C@@H]1C[C@H](CCc2ccc3ccc(NCC4CC4)nc3c2)[C@@H](O)[C@H]1O [Compound 211] | ~2570 | 3.16 | – | – |
| Nc1nc2cc(CC[C@H]3C[C@@H](n4ccc5cncnc54)[C@H](O)[C@@H]3O)ccc2cc1Cl [Compound 242] | < 1.17 | 1 | – | – |
| Nc1nc2cc(CC[C@H]3C[C@@H](n4ccc5c(NC6CC6)ncnc54)[C@H](O)[C@@H]3O)ccc2cc1Cl [Compound 197] | 31.6 | 0.631 | – | – |
| C=Cc1cnc2cc(OC[C@H]3O[C@@H](n4ccc5c(N)ncnc54)[C@H](O)[C@@H]3O)ccc2c1 [Compound 253] | – | – | 20 | – |
| Nc1ncnc2c1ccn2[C@@H]1C[C@H](CCc2ccc3cc(Br)c(NC4CC4)nc3c2)[C@@H](O)[C@H]1O [Compound 153] | 31.6 | 200 | – | – |
| Nc1ncnc2c1ccn2[C@@H]1C[C@H](CCc2ccc3cc(F)c(NCC4CC4)nc3c2)[C@@H](O)[C@H]1O [Compound 155] | 251 | 158 | – | – |
| CC(C)Nc1ncnc2c1ccn2[C@@H]1C[C@H](CCc2ccc3cc(Cl)c(N)nc3c2)[C@@H](O)[C@H]1O [Compound 196] | 100 | 2 | – | – |
| CNc1ncnc2c1ccn2[C@@H]1C[C@H](CCc2ccc3ccc(NC4CCC4)nc3c2)[C@@H](O)[C@H]1O [Compound 183] | 6.31 | 0.501 | – | – |
| CNc1ncnc2c1ccn2[C@@H]1C[C@H](CCc2ccc3ccc(NC(C)C)nc3c2)[C@@H](O)[C@H]1O [Compound 206] | 25.1 | 1.58 | – | – |
| COc1ncnc2c1ccn2[C@@H]1C[C@H](CCc2ccc3cc(C(F)(F)F)c(N)nc3c2)[C@@H](O)[C@H]1O [Compound 200] | 1000 | 6.31 | – | – |
| CNc1nc2cc(CC[C@H]3C[C@@H](n4ccc5c(NC)ncnc54)[C@H](O)[C@@H]3O)ccc2cc1F [Compound 203] | 6310 | > 2510 | – | – |
| CNc1ncnc2c1ccn2[C@@H]1C[C@H](COc2ccc3cc(Br)c(N)nc3c2)[C@@H](O)[C@H]1O [Compound 237] | 6.31 | 1.58 | – | – |
| CNc1ncnc2c1ccn2[C@@H]1C[C@H](CCc2ccc3cc(Cl)c(N)nc3c2)[C@@H](O)[C@H]1O [Compound 194] | 1.58 | 0.631 | – | – |
| COc1ncnc2c1ccn2[C@@H]1C[C@H](CCc2ccc3cc(F)c(N)nc3c2)[C@@H](O)[C@H]1O [Compound 204] | 63.1 | 3.98 | – | – |
| CNc1ncnc2c1ccn2[C@@H]1C[C@H](CCc2ccc3ccc(NC4CC4)nc3c2)[C@@H](O)[C@H]1O [Compound 179] | 5.01 | 0.631 | – | – |
| Nc1ncc2ccn([C@@H]3C[C@H](CCc4ccc5cc(Cl)c(N)nc5c4)[C@@H](O)[C@H]3O)c2n1 [Compound 243] | < 1.17 | 0.794 | – | – |

| SMILES | IC50 [1, 4] [nM] | IC50 [2] [nM] | IC50 [3] [nM] | IC50 ([1]; A549, read-out: pIC50 Assay 2 (converted)) [nM] |
| --- | --- | --- | --- | --- |
| Nc1nc2cc(CC[C@H]3C[C@@H](n4ccc5c(N)ncnc54)[C@H](O)[C@@H]3O)ccc2cc1C(F)(F)F [Compound 154] | 2.51 | 0.316 | – | – |
| CNc1ncnc2c1ccn2[C@@H]1O[C@H](CCc2ccc3cc(Br)c(N)nc3c2)[C@@H](O)[C@H]1O [Compound 239] | 25.1 | 10 | – | – |
| Nc1ncnc2c1ccn2[C@@H]1C[C@H](CCc2ccc3ccc(NCC4CC4)nc3c2)[C@@H](O)[C@H]1O [Compound 74] | – | 0.126 | – | 0.398 |
| COc1ncnc2c1ccn2[C@@H]1C[C@H](CCc2ccc3ccc(NCC(F)(F)F)nc3c2)[C@@H](O)[C@H]1O [Compound 188] | 631 | 39.8 | – | – |
| Nc1nc2cc(OC[C@H]3C[C@@H](n4ccc5c(N)ncnc54)[C@H](O)[C@@H]3O)ccc2cc1Cl [Compound 223] | 1.26 | 0.2 | – | – |
| COc1ncnc2c1ccn2[C@@H]1C[C@H](CCc2ccc3ccc(NCC4CC4)nc3c2)[C@@H](O)[C@H]1O [Compound 210] | 126 | 2.51 | – | – |
| CNc1ncnc2c1ccn2[C@@H]1C[C@H](CCc2ccc3ccc(NCC(F)(F)F)nc3c2)[C@@H](O)[C@H]1O [Compound 162] | 158 | 7.94 | – | – |
| COc1ncnc2c1ccn2[C@@H]1C[C@H](CCc2ccc3ccc(NC4CC4)nc3c2)[C@@H](O)[C@H]1O [Compound 181] | 39.8 | 1.26 | – | – |
| CNc1ccc2ccc(CC[C@H]3C[C@@H](n4ccc5c(NC)ncnc54)[C@H](O)[C@@H]3O)cc2n1 [Compound 178] | 10 | 0.794 | – | – |
| CNc1ncnc2c1ccn2[C@@H]1O[C@H](CCc2ccc3cc(Cl)c(N)nc3c2)[C@@H](O)[C@H]1O [Compound 198] | 63.1 | 3.98 | – | – |
| Nc1ncnc2c1ccn2[C@@H]1C[C@H](CCc2ccc3ccc(NC4CCC4)nc3c2)[C@@H](O)[C@H]1O [Compound 156] | < 1.17 | 0.316 | – | – |
| CNc1ccc2ccc(OC[C@H]3C[C@@H](n4ccc5c(NC)ncnc54)[C@H](O)[C@@H]3O)cc2n1 [Compound 226] | 100 | 6.31 | – | – |
| Nc1ncnc2c1ccn2[C@@H]1O[C@H](COc2ccc3cccnc3c2)[C@@H](O)[C@H]1O [Compound 1] | 79.4 | 12.6 | – | – |
| Nc1nc2cc(CC[C@H]3C[C@@H](n4ccc5c(N)ncnc54)[C@H](O)[C@@H]3O)ccc2cc1F [Compound 159] | < 1.17 | 0.126 | – | – |
| COc1ncnc2c1ccn2[C@@H]1O[C@H](CCc2ccc3cc(Cl)c(N)nc3c2)[C@@H](O)[C@H]1O [Compound 199] | 251 | 39.8 | – | – |
